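GI50 is the concentration that inhibits growth by half. TGI: total growth inhibition.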
How the values were obtained:
Assay in all cases: growth of human tumour cells (NCI), 384-well format
HOP-92 NSCLC = system: HOP-92 NSCLC
HS 578T breast = system: HS 578T breast
HT29 colon = system: HT29 colon
NCI-H522 lung = system: NCI-H522 lung
SF-268 CNS = system: SF-268 CNS
SF-295 CNS = system: SF-295 CNS
SK-MEL-28 melanoma = system: SK-MEL-28 melanoma
SNB-19 CNS = system: SNB-19 CNS
SR leukemia = system: SR leukemia
T-47D breast = system: T-47D breast
U251 glioblastoma = system: U251 glioblastoma
UACC-62 melanoma = system: UACC-62 melanoma
UO-31 renal = system: UO-31 renal

C1=C/COCc2cc(ccc2OCCN2CCCC2)Nc2nccc(n2)-c2cccc(c2)COC/1
GI50 (HOP-92 NSCLC): 1600 nM | TGI (HOP-92 NSCLC): 3910 nM | GI50 (HS 578T breast): 1360 nM | TGI (HS 578T breast): 2670 nM | GI50 (HT29 colon): 1340 nM | TGI (HT29 colon): 2670 nM | GI50 (NCI-H522 lung): 1450 nM | TGI (NCI-H522 lung): 2780 nM | GI50 (SF-268 CNS): 865 nM | TGI (SF-268 CNS): 2100 nM | GI50 (SF-295 CNS): 1810 nM | TGI (SF-295 CNS): 3310 nM | GI50 (SK-MEL-28 melanoma): 1190 nM | TGI (SK-MEL-28 melanoma): 2440 nM | GI50 (SNB-19 CNS): 2330 nM | TGI (SNB-19 CNS): 6910 nM | GI50 (SR leukemia): 152 nM | TGI (SR leukemia): 303 nM | GI50 (T-47D breast): 1270 nM | TGI (T-47D breast): 2670 nM | GI50 (U251 glioblastoma): 1540 nM | TGI (U251 glioblastoma): 3290 nM | GI50 (UACC-62 melanoma): 685 nM | TGI (UACC-62 melanoma): 1920 nM | GI50 (UO-31 renal): 1470 nM | TGI (UO-31 renal): 3190 nM

From PubChem BioAssay (NCI)
